Data reported in patent US11414424B2, “Cardiac sarcomere inhibitors” (Cytokinetics, Inc., priority 2018, dated 2022).

What follows are compounds tested on bovine cardiac myofibrils (assay: Myofibril assay: PK/LDH-coupled steady-state ATPase activity of skinned bovine cardiac myofibrils). Conditions: Ca2+ activating to 75% of maximal rate.
Type: biochemical
Protocol: To evaluate the effect of compounds on the ATPase activity of full-length cardiac myosin in the context of the native sarcomere, skinned myofibril assays were performed. Bovine cardiac myofibrils were obtained by homogenizing bovine cardiac left ventricular tissue in the presence of a detergent such as triton X-100. Such treatment removes membranes and a majority of the soluble cytoplasmic proteins but leaves intact the cardiac sarcomeric acto-myosin apparatus. Myofibril preparations retain the ability to hydrolyze ATP in a Ca^2+ regulated manner. ATPase activities of such myofibril preparations in the presence and absence of compounds were assayed at Ca^2+ concentrations activating to a defined fraction of the maximal rate (i.e., […], 75%). Small molecule agents were assessed for their ability to inhibit the steady-state ATPase activity of bovine cardiac myofibrils using pyruvate kinase and lactate dehydrogenase (PK/LDH)-coupled enzyme system. This assay regenerates myosin-produced ADP into ATP by oxidizing NADH, producing an absorbance change at 340 nm. Prior to testing small molecule agents, the bovine cardiac myofibrils were assessed for their calcium responsiveness and the calcium concentration that achieves either a 50% (pCa50) or 75% (pCa75) activation of the myofibril system was chosen as the final condition for assessing the inhibitory activity of the small molecule agents. All enzymatic activity was measured in a buffered solution containing 12 mM PIPES (piperazine-N,N′-bis(2-ethanesulfonic acid), 2 mM magnesium chloride at pH 6.8 (PM 12 buffer). Final assay conditions were 1 mg/mL of bovine cardiac myofibrils, 4 U/mL pyruvate kinase, 6 U/mL lactate dehydrogenase, 50 μM ATP, 0.1 mg/mL BSA (bovine serum albumin), 10 ppm antifoam, 1 mM DTT, 0.5 mM NADH, 1.5 mM PEP, 0.6 mM EGTA, and an amount of CaCl2 sufficient to achieve either 50% or 75% activation of the myofibril ATPase activity. Results for compounds tested are provided in Table A. Compounds tested were prepared in accordance with the synthetic procedures described herein.

Row | SMILES | CDMF75 IC15 [µM]
1 | CCC(=O)N1CC[C@]2(C1)C(=O)N(c1ccc(C#N)cc1F)CC(=O)N2Cc1ccc(C(F)(F)F)cc1 [Compound 218, (S)-4-(7,10-dioxo-2-propionyl-6-(4-(trifluoromethyl)benzyl)-2,6,9-triazaspiro[4.5]decan-9-yl)-3-fluorobenzonitrile] | 0.4
2 | CC(C)N1CC(=O)N(Cc2ccc(C(F)(F)F)cc2)C2(CCN(C(=O)NC3CCC3)C2)C1=O (stereo not shown) [Compound 1, N-cyclobutyl-9-isopropyl-7,10-dioxo-6-(4-(trifluoromethyl)benzyl)-2,6,9-triazaspiro[4.5]-decane-2-carboxamide] | 9.5
3 | CNC(=S)N1CC2(C1)C(=O)N(c1ccc(C#N)cc1)CC(=O)N2Cc1ccc(C(F)(F)F)cc1 [Compound 189, 8-(4-cyanophenyl)-N-methyl-6,9-dioxo-5-(4-(trifluoromethyl)benzyl)-2,5,8-triazaspiro[3.5]-nonane-2-carbothioamide] | 1.4
4 | CC(C)N1CC(=O)N(Cc2ccc(Cl)cc2)C2(CN(c3cccc(Cl)c3)C2)C1=O [Compound 5, 5-(4-chlorobenzyl)-2-(3-chlorophenyl)-8-isopropyl-2,5,8-triazaspiro[3.5]-nonane-6,9-dione] | 1.9
5 | CNC(=O)N1CC2(C1)C(=O)N(c1ccc(Cl)c(F)c1)CC(=O)N2Cc1ccc(C(F)(F)F)cc1 [Compound 155, 8-(4-chloro-3-fluorophenyl)-N-methyl-6,9-dioxo-5-(4-(trifluoromethyl)benzyl)-2,5,8-triazaspiro[3.5]-nonane-2-carboxamide] | 0.6
6 | CNC(=O)N1CC2(C1)C(=O)N(c1ccc(OC)cc1)CC(=O)N2Cc1ccc(C(F)(F)F)cc1 [Compound 145, 8-(4-methoxyphenyl)-N-methyl-6,9-dioxo-5-(4-(trifluoromethyl)benzyl)-2,5,8-triazaspiro[3.5]-nonane-2-carboxamide] | 3.8
7 | N#Cc1ccc(N2CC(=O)N(Cc3ccc(C(F)(F)F)cc3)C3(CN(C=O)C3)C2=O)cc1 [Compound 190, 4-(2-formyl-6,9-dioxo-5-(4-(trifluoromethyl)benzyl)-2,5,8-triazaspiro[3.5]nonan-8-yl)benzonitrile] | 4.0
8 | COC(=O)N1CCC2(C1)C(=O)N(C(C)C)CC(=O)N2Cc1ccc(C(F)(F)F)cc1 (stereo not shown) [Compound 110, methyl 9-isopropyl-7,10-dioxo-6-(4-(trifluoro-methyl)benzyl)-2,6,9-triazaspiro[4.5]decane-2-carboxylate] | 34.4
9 | CC(C)N1CC(=O)N(Cc2ccc(Cl)cc2)C2(CN(c3ccccc3)C2)C1=O [Compound 2, 5-(4-chlorobenzyl)-8-isopropyl-2-phenyl-2,5,8-triazaspiro[3.5]nonane-6,9-dione] | 1.8
10 | CCN1CC(=O)N(Cc2ccc(C(F)(F)F)cc2)C2(CN(c3ccc(C#N)cn3)C2)C1=O [Compound 57, 6-(8-ethyl-6,9-dioxo-5-(4-(trifluoromethyl)benzyl)-2,5,8-triazaspiro[3.5]-nonan-2-yl)nicotinonitrile] | 33.3
11 | CNC(=O)c1cc(N2CC3(C2)C(=O)N(C(C)C)CC(=O)N3Cc2ccc(Cl)cc2)ccn1 [Compound 38, 4-(5-(4-chlorobenzyl)-8-isopropyl-6,9-dioxo-2,5,8-triazaspiro-[3.5]nonan-2-yl)-N-methylpicolinamide] | 12.4
12 | CC1(CO)C(=O)N(c2ccc(C#N)cc2F)CC(=O)N1Cc1ccc(C(F)(F)F)cc1 (stereo not shown) [Compound 269, 3-fluoro-4-(3-(hydroxy-methyl)-3-methyl-2,5-dioxo-4-(4-(trifluoro-methyl)benzyl)piperazin-1-yl)benzonitrile] | 1.2
13 | CC(C)N1CC(=O)N(Cc2ccc(Cl)cc2)C2(CN(c3cnnc(Cl)c3)C2)C1=O [Compound 61, 5-(4-chlorobenzyl)-2-(6-chloropyridazin-4-yl)-8-isopropyl-2,5,8-triazaspiro[3.5]nonane-6,9-dione] | 22.9
14 | CC(C)N1CC(=O)N(Cc2ccc(Cl)cc2)C(c2ccc(F)cc2)C1=O (stereo not shown) [Compound 311, 4-(4-chlorobenzyl)-3-(4-fluorophenyl)-1-isopropylpiperazine-2,5-dione] | 5.9
15 | CNC(=O)N1CCC2(C1)C(=O)N(c1ccc([N+](=O)[O-])cc1)CC(=O)N2Cc1ccc(Cl)cc1 (stereo not shown) [Compound 349, 6-(4-chlorobenzyl)-N-methyl-9-(4-nitrophenyl)-7,10-dioxo-2,6,9-triazaspiro[4.5]decane-2-carboxamide] | 0.9
16 | CC1(CO)C(=O)N(c2ccc(Cl)cc2F)CC(=O)N1Cc1ccc(C(F)(F)F)cc1 (stereo not shown) [Compound 270, 1-(4-chloro-2-fluorophenyl)-3-(hydroxymethyl)-3-methyl-4-(4-(trifluoro-methyl)benzyl)piperazine-2,5-dione] | 1.9
17 | CC(C)N1CC(=O)N(Cc2ccc(Cl)cc2)C(c2ccc(Cl)cn2)C1=O (stereo not shown) [Compound 297, 4-(4-chlorobenzyl)-3-(5-chloropyridin-2-yl)-1-isopropylpiperazine-2,5-dione] | 11.6

The remaining lines, values ahead:

Row | CDMF75 IC15 [µM] | SMILES
18 | 1.42 | NC(=O)C12CC([C@H]3C(=O)N(c4ncc(Cl)cc4F)CC(=O)N3Cc3ccc(Cl)cc3)(C1)C2 [Compound 836, (S)-3-(4-(5-chloro-3-fluoro-pyridin-2-yl)-1-(4-chloro-benzyl)-3,6-dioxo-piperazin-2-yl)bicyclo-[1.1.1]pentane-1-carboxamide]
19 | 2.3 | CC(C)N1CC(=O)N(Cc2ccc(Cl)cc2)C2(Cc3ccccc3C2)C1=O [Compound 317, 1′-(4-chlorobenzyl)-4′-isopropyl-1,3-dihydrospiro[indene-2,2′-piperazine]-3′,6′-dione]
20 | 0.4 | Cc1cc(Cl)cnc1N1CC(=O)N(Cc2ccc(F)cc2)C2(CN(c3ccccn3)C2)C1=O [Compound 883, 8-(5-chloro-3-methyl-pyridin-2-yl)-5-(4-fluoro-benzyl)-2-(pyridin-2-yl)-2,5,8-triazaspiro[3.5]-nonane-6,9-dione]
21 | 0.6 | O=C1CN(c2ncc(Cl)cc2F)C(=O)C2(CCC2)N1Cc1ccc(C(F)(F)F)cc1 [Compound 548, 8-(5-chloro-3-fluoropyridin-2-yl)-5-(4-(trifluoromethyl)-benzyl)-5,8-diazaspiro-[3.5]nonane-6,9-dione]
22 | 2.3 | C[C@@H](c1ccc(C(F)(F)F)cc1)N1C(=O)CN(c2ncc(Cl)cc2F)C(=O)C12CN(CC(F)F)C2 [Compound 593, (S)-8-(5-chloro-3-fluoro-pyridin-2-yl)-2-(2,2-difluoroethyl)-5-(l-(4-(trifluoromethyl)phenyl)-ethyl)-2,5,8-triazaspiro-[3.5]nonane-6,9-dione]
23 | 0.4 | CNC(=O)c1cccc(N2CC3(C2)C(=O)N(c2ccc(C#N)cc2F)CC(=O)N3Cc2ccc(C(F)(F)F)cc2)c1NC [Compound 547, 3-(8-(4-cyano-2-fluorophenyl)-6,9-dioxo-5-(4-(trifluoromethyl)benzyl)-2,5,8-triazaspiro[3.5]nonan-2-yl)-N-methyl-2-(methylamino)benzamide]
24 | 29.8 | CNC(=O)[C@H]1C[C@]2(C1)C(=O)N(C(C)C)CC(=O)N2Cc1ccc(C(F)(F)F)cc1 [Compound 498B]
25 | 7.04 | C[C@@H](c1ccc(Cl)cc1)N1C(=O)CN(c2ncc(Cl)cc2F)C(=O)C12COC2 [Compound 558]
26 | 17.8 | CC(=O)N1CC2(C1)C(=O)N(c1ncc(C(F)(F)F)cc1F)CC(=O)N2[C@@H](C)c1ccc(Cl)cc1 [Compound 565, (S)-2-acetyl-5-(1-(4-chlorophenyl)ethyl)-8-(3-fluoro-5-(trifluoromethyl)-pyridin-2-yl)-2,5,8-triazaspiro[3.5]nonane-6,9-dione]
27 | 4.4 | O=C1C(C2CC(O)C2)N(Cc2ccc(F)cc2)C(=O)CN1c1ccc(Cl)cc1F (single isomer, unassigned) [Compound 866A, 1-(4-chloro-2-fluorophenyl)-4-(4-fluorobenzyl)-3-(3-hydroxycyclobutyl)piperazine-2,5-dione]
28 | 35.5 | Cc1nc([C@H]2C[C@]3(C2)C(=O)N(C(C)C)CC(=O)N3Cc2ccc(C(F)(F)F)cc2)oc1C (single isomer, unassigned) [Compound 500B]
29 | 0.4 | Cc1coc([C@H]2C[C@]3(C2)C(=O)N(c2ccc(C#N)cc2F)CC(=O)N3Cc2ccc(C(F)(F)F)cc2)n1 [Compound 442B]
30 | 2.2 | NC(=O)[C@H]1C[C@]2(C1)C(=O)N(c1ncc(Cl)cc1F)CC(=O)N2Cc1ccc(C(F)F)cc1 (single isomer, unassigned) [Compound 875A, 8-(5-chloro-3-fluoropyridin-2-yl)-5-(4-(difluoromethyl)benzyl)-6,9-dioxo-5,8-diazaspiro[3.5]nonane-2-carboxamide]
31 | 1.2 | C[C@@H](c1ccc(Cl)cc1)N1C(=O)CN(c2ncc(Cl)cc2F)C(=O)C12CN(C=O)C2 [Compound 568, (S)-8-(5-chloro-3-fluoro-pyridin-2-yl)-5-(1-(4-chlorophenyl)ethyl)-6,9-dioxo-2,5,8-triazaspiro-[3.5]nonane-2-carbaldehyde]
